The test system of the experiment is rabbit skeletal myofibrils (approximately 90% fast fibers). Nature of the experiment: Activation of fast skeletal myofibrils (PUMA coupled-enzyme ATPase assay, AC1.4). The format is biochemical. The settings on record: concentration at which the compound increased enzymatic activity by 40%, calcium at pCa25. The protocol:
Rabbit skeletal myofibrils were prepared based upon the method of Herrmann et al. (Biochem. 32(28):7255-7263(1993). Myofibrils were prepared from rabbit psoas muscle purchased from Pel-Freez Biologicals (Arkansas) within 2 days of ordering, stored on ice. Minced muscle was homogenized in 10 volumes of ice-cold “standard” buffer (50 mM Tris, pH 7.4, 0.1 M potassium acetate, 5 mM KCl, 2 mM DTT, 0.2 mM PMSF, 10 μM leupeptin, 5 μM pepstatin, and 0.5 mM sodium azide) containing 5 mM EDTA and 0.5% Triton X-100 using an Omni-Macro homogenizer. Myofibrils were recovered by low speed centrifugation (3000 rpm for 10 minutes) and washed 2 times in the Triton X-100 containing buffer to ensure removal of cellular membrane. Following the Triton washes, myofibrils were washed 3 times in “standard” buffer containing 2 mM magnesium acetate. A final wash in assay buffer (12 mM PIPES, pH 6.8, 60 mM KCl, 1 mM DTT) was performed and brought to 10% sucrose for flash freezing in liquid nitrogen and storage at −80° C.
Fast fiber activators were identified by measuring the enzymatic activity of muscle myofibril preparations using the proprietary PUMA™ (see, e.g., U.S. Pat. Nos. 6,410,254, 6,743,599, 7,202,051, and 7,378,254) assay system. Myofibril preparations consisted of rabbit skeletal muscle (approximately 90% fast fibers) that had been mechanically homogenized and washed with a detergent (triton X-100) to remove cellular membranes. This preparation retained all of the sarcomeric components in a native conformation and the enzymatic activity was still regulated by calcium. Compounds were tested using a myofibril suspension and a level of calcium sufficient to increase enzymatic activity of the myofibrils to 25% of their maximal rate (termed pCa25). Enzymatic activity was tracked via a pyruvate kinase and lactate dehydrogenase-coupled enzyme system. This assay regenerates myosin-produced ADP into ATP by oxidizing NADH, producing an absorbance change at 340 nm. The buffering system was 12 mM Pipes, 2 mM MgCl2, 1 mM DTT at pH 6.8 (PM12 buffer).
Using procedures similar to those described herein, utilizing reagents and intermediates commercially available (e.g., Sigma-Aldrich) or readily synthesized by one of skill in the art, the compounds in Table 2, Table 3, Table 4 and Table 5 were synthesized, characterized and tested. AC1.4 values were determined according to the procedure described in Example 6, and the reported median AC1.4 values are as follows: A=<1 uM; B=1-10 uM; C=10-20 uM; D=>20 uM.

The structures appear in SMILES notation.

In the case of `NC(=O)c1cccc2sc(NC[C@]3(c4ncccc4F)C[C@H](F)C3)nc12`, where the note is “Table 4”, the “Mean AC1.4” value is given as “D (D=>20 uM)”.
As to `CN(CCO)c1nsc(NCC(C)(C)c2ccc(F)cc2)n1`, for the setting “Table 2”, the “Mean AC1.4” value was “D (D=>20 uM)”.
For the compound `O=C(Nc1ccn(-c2ccccc2)n1)C1(c2ncccc2F)CCC1` [1-(3-fluoropyridin-2-yl)-N-(1-phenyl-1H-pyrazol-3-yl)cyclobutanecarboxamide], under “Table 5”, the “Mean AC1.4” value is “D (D=>20 uM)”.
On to `Cc1cc(NC(=O)C2(c3ncccc3F)CCC2)nn1-c1ccccc1` [1-(3-fluoropyridin-2-yl)-N-(5-methyl-1-phenyl-1H-pyrazol-3-yl)cyclobutanecarboxamide], for which, for the setting “Table 5”, the “Mean AC1.4” value was “D (D=>20 uM)”.
As to `CC(C)(CNc1nc(C(O)CO)ns1)c1ccc(F)cc1` (centres unmarked) [1-(5-{[2-(4-fluorophenyl)-2-methylpropyl]amino}-1,2,4-thiadiazol-3-yl)ethane-1,2-diol], the “Mean AC1.4” value (Table 2) is “B (B=1-10 uM)”.
The same measure, in the same setting: then `CC(C)(CNc1nc(CCC(=O)N2CC[C@@H](O)C2)ns1)c1ccc(F)cc1` [1-((3R)-3-hydroxypyrrolidinyl)-3-(5-{[2-(4-fluorophenyl)-2-methylpropyl]amino}(1,2,4-thiadiazol-3-yl))propan-1-one], with “D (D=>20 uM)”.
As to `CC(C)(CNc1nc(CCC(=O)N2CC[C@H](O)C2)ns1)c1ccc(F)cc1` [1-((3S)-3-hydroxypyrrolidinyl)-3-(5-{[2-(4-fluorophenyl)-2-methylpropyl]amino}(1,2,4-thiadiazol-3-yl))propan-1-one], the “Mean AC1.4” value (Table 2) is “D (D=>20 uM)”.
As for `CC(C)(CNc1nc(CCN2CCCC(O)C2)ns1)c1ccc(F)cc1` (centres unmarked) [1-[2-(5-{[2-(4-fluorophenyl)-2-methylpropyl]amino}-1,2,4-thiadiazol-3-yl)ethyl]piperidin-3-ol], the “Mean AC1.4” value (Table 2) was “C (C=10-20 uM)”.
On to `CC(C)(CNc1nc(CCN2CCC(O)CC2)ns1)c1ccc(F)cc1` [1-[2-(5-{[2-(4-fluorophenyl)-2-methylpropyl]amino}-1,2,4-thiadiazol-3-yl)ethyl]piperidin-4-ol], for which the “Mean AC1.4” value (Table 2) is “D (D=>20 uM)”.
The same measure, in the same setting: to `CC(C)(CNc1nc(CN2CCN(S(C)(=O)=O)CC2)ns1)c1ccc(F)cc1` [1-[(5-{[2-(4-fluorophenyl)-2-methylpropyl]amino}(1,2,4-thiadiazol-3-yl))methyl]-4-(methylsulfonyl)piperazine] belongs “C (C=10-20 uM)”; to `CC(C)(CNc1nc(CN2CCCC(O)C2)ns1)c1ccc(F)cc1` (centres unmarked) [1-[(5-{[2-(4-fluorophenyl)-2-methylpropyl]amino}-1,2,4-thiadiazol-3-yl)methyl]piperidin-3-ol], “D (D=>20 uM)”; to `CC(C)(CNc1nc(CN2CCC(O)CC2)ns1)c1ccc(F)cc1` [1-[(5-{[2-(4-fluorophenyl)-2-methylpropyl]amino}-1,2,4-thiadiazol-3-yl)methyl]piperidin-4-ol], “D (D=>20 uM)”.
The same measure, in the same setting: to `CC(C)(CNc1nc(CN2CCN(C(=O)CO)CC2)ns1)c1ccc(F)cc1` [1-{4-[(5-{[2-(4-fluorophenyl)-2-methylpropyl]amino}(1,2,4-thiadiazol-3-yl))methyl]piperazinyl}-2-hydroxyethan-1-one] belongs “D (D=>20 uM)”.
In the case of `CC(C)(O)c1ccc2nc(NCC(C)(C)c3ccc(F)cc3)sc2c1` [2-(2-(2-(4-fluorophenyl)-2-methylpropylamino)benzo[d]thiazol-6-yl)propan-2-ol], for the setting “Table 4”, the “Mean AC1.4” value is “A (A=<1 uM)”.
In the case of `CN(C)C(=O)c1ccc2nc(NCC(C)(C)c3ccc(F)cc3)sc2c1` [2-(2-(4-fluorophenyl)-2-methylpropylamino)-N,N-dimethylbenzo[d]thiazole-6-carboxamide], the “Mean AC1.4” value (Table 4) is given as “B (B=1-10 uM)”.
On to `CNC(=O)c1ccc2nc(NCC(C)(C)c3ccc(F)cc3)sc2c1` [2-(2-(4-fluorophenyl)-2-methylpropylamino)-N-methylbenzo[d]thiazole-6-carboxamide], for which, for the setting “Table 4”, the “Mean AC1.4” value is given as “B (B=1-10 uM)”.
The same measure, in the same setting: then `CC(C)(CNc1nc2ccc(C(=O)O)cc2s1)c1ccc(F)cc1` [2-(2-(4-fluorophenyl)-2-methylpropylamino)benzo-6-carboxylic acid], with “C (C=10-20 uM)”.
On the same count and under the same terms, to `CC(C)(CNc1nc2c(C#N)cccc2s1)c1ccc(F)cc1` [2-(2-(4-fluorophenyl)-2-methylpropylamino)benzo[d] thiazole-4-carbonitrile] belongs “A (A=<1 uM)”; to `CC(C)(CNc1nc2c(C(N)=O)cccc2s1)c1ccc(F)cc1` [2-(2-(4-fluorophenyl)-2-methylpropylamino)benzo[d] thiazole-4-carboxamide], “C (C=10-20 uM)”; to `CC(C)(CNc1nc2cc(C#N)ccc2s1)c1ccc(F)cc1` [2-(2-(4-fluorophenyl)-2-methylpropylamino)benzo[d] thiazole-5-carbonitrile], “B (B=1-10 uM)”.
Same read-out and setting: to `CC(C)(CNc1nc2cc(C(N)=O)ccc2s1)c1ccc(F)cc1` [2-(2-(4-fluorophenyl)-2-methylpropylamino)benzo[d] thiazole-5-carboxamide] belongs “B (B=1-10 uM)”.
In the case of `CC(C)(CNc1nc2ccc(C#N)cc2s1)c1ccc(F)cc1` [2-(2-(4-fluorophenyl)-2-methylpropylamino)benzo[d] thiazole-6-carbonitrile], for the setting “Table 4”, the “Mean AC1.4” value was “B (B=1-10 uM)”.
Still for that read-out and setting: then `CC(C)(CNc1nc2ccc(C(N)=O)cc2s1)c1ccc(F)cc1` [2-(2-(4-fluorophenyl)-2-methylpropylamino)benzo[d] thiazole-6-carboxamide], with “A (A=<1 uM)”; and `CC(C)(CNc1nc2cccc(C#N)c2s1)c1ccc(F)cc1` [2-(2-(4-fluorophenyl)-2-methylpropylamino)benzo[d] thiazole-7-carbonitrile], with “B (B=1-10 uM)”.
With `CC(C)(CNc1nc2cccc(C(N)=O)c2s1)c1ccc(F)cc1` [2-(2-(4-fluorophenyl)-2-methylpropylamino)benzo[d] thiazole-7-carboxamide], the “Mean AC1.4” value (Table 4) is recorded as “B (B=1-10 uM)”.
In the case of `CC(C)(O)c1ccc(F)c(-c2nnc(NC[C@]3(c4ncccc4F)C[C@H](F)C3)s2)c1` [2-(4-fluoro-3-(5-((3-fluoro-1-(3-fluoropyridin-2-yl)cyclobutyl)methylamino)-1,3,4-thiadiazol-2-yl)phenyl)propan-2-ol], the “Mean AC1.4” value (Table 3) was “B (B=1-10 uM)”.
As to `N#Cc1ccc2nc(NCCc3ccc(F)cc3)sc2c1` [2-(4-fluorophenethylamino)benzo[d] thiazole-6-carbonitrile], under “Table 4”, the “Mean AC1.4” value is on record as “D (D=>20 uM)”.
The same measure, in the same setting: then `NC(=O)c1ccc2nc(NCCc3ccc(F)cc3)sc2c1` [2-(4-fluorophenethylamino)benzo[d] thiazole-6-carboxamide], with “B (B=1-10 uM)”.
With `Cc1nsc(NC(=O)C(C)(C)c2ccc(F)cc2)n1` [2-(4-fluorophenyl)-2-methyl-N-(3-methyl(1,2,4-thiadiazol-5-yl))propanamide], where the note is “Table 2”, the “Mean AC1.4” value is listed as “D (D=>20 uM)”.
In the case of `CC(C)(C(=O)Nc1nc(-c2ccccc2)ns1)c1ccc(F)cc1` [2-(4-fluorophenyl)-2-methyl-N-(3-phenyl(1,2,4-thiadiazol-5-yl))propanamide], the “Mean AC1.4” value (Table 2) was “D (D=>20 uM)”.
`NC(=O)c1ccccc1-c1nnc(NCC2(c3ncccc3F)CCC2)s1` [2-(5-((1-(3-fluoropyridin-2-yl)cyclobutyl)methylamino)-1,3,4-thiadiazol-2-yl)benzamide]: the “Mean AC1.4” value (Table 3) was “D (D=>20 uM)”.
For `N#Cc1ccccc1-c1nnc(NCC2(c3ncccc3F)CCC2)s1` [2-(5-((1-(3-fluoropyridin-2-yl)cyclobutyl)methylamino)-1,3,4-thiadiazol-2-yl)benzonitrile], the “Mean AC1.4” value (Table 3) was “B (B=1-10 uM)”.
For `N#Cc1ccc(C#N)c(-c2nnc(NC[C@]3(c4ncccc4F)C[C@H](F)C3)s2)c1` [2-(5-((3-fluoro-1-(3-fluoropyridin-2-yl)cyclobutyl)methylamino)-1,3,4-thiadiazol-2-yl)terephthalonitrile], the “Mean AC1.4” value (Table 3) is listed as “B (B=1-10 uM)”.
As to `CC(C)(CNc1nc(-c2ccccc2O)ns1)c1ccc(F)cc1` [2-(5-{[2-(4-fluorophenyl)-2-methylpropyl]amino}-1,2,4-thiadiazol-3-yl)phenol], under “Table 2”, the “Mean AC1.4” value was “B (B=1-10 uM)”.
Regarding `N#Cc1ccc2nc(NCC3(c4ncccc4F)CCC3)sc2c1` [2-((1-(3-fluoropyridin-2-yl)cyclobutyl)methylamino)benzo[d] thiazole-6-carbonitrile], for the setting “Table 4”, the “Mean AC1.4” value is on record as “B (B=1-10 uM)”.

These data come from US9278962B2 (Cytokinetics, Inc., priority 2011, dated 2016).
